pIC50: −log10 of the molar value.

The target of this test is HPK1 (Homo sapiens, UniProt Q92918). Kind of test: Inhibitory effect against enzyme activity of HPK1 (lantha Screen, PKC substrate). The settings on record: class symbols defined as IC50 ranges, read-out: Inhibition rate (%). Type of test: biochemical. Here is the method: Example 130: Assay of Inhibitory Effect of Compound Against Enzyme Activity of HPK1
Chain of HPK1 (Q92918 whole entry): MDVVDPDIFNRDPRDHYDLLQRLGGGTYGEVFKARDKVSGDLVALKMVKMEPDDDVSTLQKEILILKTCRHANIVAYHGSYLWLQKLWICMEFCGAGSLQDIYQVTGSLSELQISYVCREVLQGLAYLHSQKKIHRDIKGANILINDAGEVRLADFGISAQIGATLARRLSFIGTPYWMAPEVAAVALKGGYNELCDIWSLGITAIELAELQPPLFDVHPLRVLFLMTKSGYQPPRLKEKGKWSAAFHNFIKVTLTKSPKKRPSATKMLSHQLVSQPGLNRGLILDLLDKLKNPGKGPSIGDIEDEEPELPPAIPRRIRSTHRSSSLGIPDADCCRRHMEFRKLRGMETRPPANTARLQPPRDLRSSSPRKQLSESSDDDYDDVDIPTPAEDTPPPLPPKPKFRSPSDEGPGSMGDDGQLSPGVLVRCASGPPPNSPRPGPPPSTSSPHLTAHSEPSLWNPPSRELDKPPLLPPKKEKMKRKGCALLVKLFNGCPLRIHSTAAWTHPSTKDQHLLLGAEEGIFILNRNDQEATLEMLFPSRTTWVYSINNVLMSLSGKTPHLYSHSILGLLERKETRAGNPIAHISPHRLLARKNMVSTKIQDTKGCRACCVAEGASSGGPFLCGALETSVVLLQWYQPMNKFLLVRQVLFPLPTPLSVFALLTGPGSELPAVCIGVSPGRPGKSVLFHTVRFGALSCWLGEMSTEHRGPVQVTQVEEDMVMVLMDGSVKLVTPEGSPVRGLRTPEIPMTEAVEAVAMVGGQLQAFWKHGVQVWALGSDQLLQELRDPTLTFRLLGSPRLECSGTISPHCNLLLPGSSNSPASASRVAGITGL
The inhibitory effect of the compound against the enzyme activity of HPK1 was determined by using a lantha Screen method with PKC as a substrate. The process comprises the following specific steps: the HPK1 protein was incubated with the serially-diluted compound at 28° C. for 10 min followed by addition of fluoroescein-labeled PKC substrate and ATP to react for 90 min. After termination of the reaction, a Terbium-labeled antibody against phosphorylated PKC was added and incubated for 60 min. The energy transfer of Teribium and fluoroscein was monitored by detecting luminescence at 520 nm and 450 nm to quantify PKC as the level of phosphorylation of […]. Inhibition % and IC50 of the compound were calculated compared to the control group.
On to `Cc1cccc(F)c1-c1cc2c(-c3ccc4c(c3)OCC3CN(C)CCN43)n[nH]c2cn1` (centres unmarked) [Compound 65], for which the pIC50 is 7.00 to 8.00.

Take `CN1CCN2c3ccc(-c4n[nH]c5cnc(-c6c(F)cccc6F)cc45)cc3OCC2C1` (centres unmarked) [Compound 66]: the pIC50 was 7.00 to 8.00.

Regarding `CNCc1cc(F)c(-c2cc3c(-c4ccc5c(c4)OCC4CN(C)CCN54)n[nH]c3cn2)c(F)c1` (centres unmarked) [Compound 68], the pIC50 was at least 8.00.

On to `CNCc1cc(C)c(-c2cc3c(-c4ccc5c(c4)OCC4CN(C)CCN54)n[nH]c3cn2)c(F)c1` (centres unmarked) [Compound 69], for which the pIC50 is at least 8.00.

For the molecule `Cc1ccncc1-c1cc2c(-c3ccc4c(c3)OCC3CN(C)CCN43)n[nH]c2cn1` (centres unmarked) [Compound 70], the pIC50 is at least 8.00.

In the case of `COc1ccncc1-c1cc2c(-c3ccc4c(c3)OCC3CN(C)CCN43)n[nH]c2cn1` (centres unmarked) [Compound 71], the pIC50 is at least 8.00.

In the case of `Cc1n[nH]cc1-c1cc2c(-c3ccc4c(c3)OCC3CN(C)CCN43)n[nH]c2cn1` (centres unmarked) [Compound 72], the pIC50 was at least 8.00.

`COc1ccc(C#N)c(F)c1-c1cc2c(-c3ccc4c(c3)OCC3CN(C)CCN43)n[nH]c2cn1` (centres unmarked) [Compound 74]: the pIC50 is 7.00 to 8.00.

As to `COc1c(F)ccc(F)c1-c1cc2c(-c3ccc4c(c3)OCC3CN(C)CCN43)n[nH]c2cn1` (centres unmarked) [Compound 75], the pIC50 is 7.00 to 8.00.

Turning to `CN1CCN2c3ccc(-c4n[nH]c5cnc(-c6ccc(C(=O)N7CC(N(C)C)C7)cc6)cc45)cc3OCC2C1` (centres unmarked) [Compound 76], the pIC50 is 7.00 to 8.00.

With `CN1CCN2c3ccc(-c4n[nH]c5cnc(-c6cccn7ccnc67)cc45)cc3OCC2C1` (centres unmarked) [Compound 77], the pIC50 is at least 8.00.

As for `CN1CCN2c3ccc(-c4n[nH]c5cnc(-c6cnn7ccccc67)cc45)cc3OCC2C1` (centres unmarked) [Compound 78], the pIC50 was at least 8.00.

Take `COc1cccc(F)c1-c1ncc2[nH]nc(-c3ccc4c(c3)OCC3CN(C)CCN43)c2n1` (centres unmarked) [Compound 79]: the pIC50 was 7.00 to 8.00.

For `CNCc1cc(C)c(-c2ncc3[nH]nc(-c4ccc5c(c4)OCC4CN(C)CCN54)c3n2)c(F)c1` (centres unmarked) [Compound 80], the pIC50 was 7.00 to 8.00.

For `CNCc1cc(F)c(-c2ncc3[nH]nc(-c4ccc5c(c4)OCC4CN(C)CCN54)c3n2)c(F)c1` (centres unmarked) [Compound 81], the pIC50 is 7.00 to 8.00.

As to `COc1cccc(F)c1-c1nc2c(-c3ccc4c(c3)OCC3CN(C)CCN43)n[nH]c2cc1C#N` (centres unmarked) [Compound 82], the pIC50 was 7.00 to 8.00.

On to `CNCc1cc(C)c(-c2nc3c(-c4ccc5c(c4)OCC4CN(C)CCN54)n[nH]c3cc2C#N)c(F)c1` (centres unmarked) [Compound 83], for which the pIC50 is at least 8.00.

Turning to `CNCc1cc(F)c(-c2nc3c(-c4ccc5c(c4)OCC4CN(C)CCN54)n[nH]c3cc2C#N)c(F)c1` (centres unmarked) [Compound 84], the pIC50 was at least 8.00.

Consider `COc1cccc(F)c1-c1ccc2[nH]nc(-c3ccc4c(c3)OCC3CN(C)CCN43)c2n1` (centres unmarked) [Compound 85], for which the pIC50 is 7.00 to 8.00.

As for `CNCc1cc(C)c(-c2ccc3[nH]nc(-c4ccc5c(c4)OCC4CN(C)CCN54)c3n2)c(F)c1` (centres unmarked) [Compound 86], the pIC50 was 7.00 to 8.00.

As for `CNCc1cc(F)c(-c2ccc3[nH]nc(-c4ccc5c(c4)OCC4CN(C)CCN54)c3n2)c(F)c1` (centres unmarked) [Compound 87], the pIC50 was 7.00 to 8.00.

Turning to `COc1cccc(F)c1-c1cc2c(-c3ccc4c(c3)OCC3CN(C)CCN43)c[nH]c2cn1` (centres unmarked) [Compound 88], the pIC50 was at least 8.00.

`CNCc1cc(C)c(-c2cc3c(-c4ccc5c(c4)OCC4CN(C)CCN54)c[nH]c3cn2)c(F)c1` (centres unmarked) [Compound 89]: the pIC50 was at least 8.00.

Turning to `CNCc1cc(F)c(-c2cc3c(-c4ccc5c(c4)OCC4CN(C)CCN54)c[nH]c3cn2)c(F)c1` (centres unmarked) [Compound 90], the pIC50 was at least 8.00.

With `COc1cccc(F)c1-c1cc2c(-c3ccc4c(c3)OCC3CN(C)CCN43)c[nH]c2cc1C#N` (centres unmarked) [Compound 91], the pIC50 is at least 8.00.

As to `CNCc1cc(C)c(-c2cc3c(-c4ccc5c(c4)OCC4CN(C)CCN54)c[nH]c3cc2C#N)c(F)c1` (centres unmarked) [Compound 92], the pIC50 was at least 8.00.

Take `CNCc1cc(F)c(-c2cc3c(-c4ccc5c(c4)OCC4CN(C)CCN54)c[nH]c3cc2C#N)c(F)c1` (centres unmarked) [Compound 93]: the pIC50 was at least 8.00.

Consider `COc1cccc(F)c1-c1ncc2[nH]cc(-c3ccc4c(c3)OCC3CN(C)CCN43)c2n1` (centres unmarked) [Compound 94], for which the pIC50 is 7.00 to 8.00.

In the case of `CNCc1cc(C)c(-c2ncc3[nH]cc(-c4ccc5c(c4)OCC4CN(C)CCN54)c3n2)c(F)c1` (centres unmarked) [Compound 95], the pIC50 is at least 8.00.

Consider `CNCc1cc(F)c(-c2ncc3[nH]cc(-c4ccc5c(c4)OCC4CN(C)CCN54)c3n2)c(F)c1` (centres unmarked) [Compound 96], for which the pIC50 is 7.00 to 8.00.

Regarding `COc1cccc(F)c1-c1nc2c(-c3ccc4c(c3)OCC3CN(C)CCN43)c[nH]c2cc1C#N` (centres unmarked) [Compound 97], the pIC50 was 7.00 to 8.00.

Turning to `CNCc1cc(C)c(-c2nc3c(-c4ccc5c(c4)OCC4CN(C)CCN54)c[nH]c3cc2C#N)c(F)c1` (centres unmarked) [Compound 98], the pIC50 is at least 8.00.

`CNCc1cc(F)c(-c2nc3c(-c4ccc5c(c4)OCC4CN(C)CCN54)c[nH]c3cc2C#N)c(F)c1` (centres unmarked) [Compound 99]: the pIC50 was at least 8.00.

As to `COc1cccc(F)c1-c1ccc2[nH]cc(-c3ccc4c(c3)OCC3CN(C)CCN43)c2n1` (centres unmarked) [Compound 100], the pIC50 is at least 8.00.

For the molecule `CNCc1cc(C)c(-c2ccc3[nH]cc(-c4ccc5c(c4)OCC4CN(C)CCN54)c3n2)c(F)c1` (centres unmarked) [Compound 101], the pIC50 was at least 8.00.

With `CNCc1cc(F)c(-c2ccc3[nH]cc(-c4ccc5c(c4)OCC4CN(C)CCN54)c3n2)c(F)c1` (centres unmarked) [Compound 102], the pIC50 was at least 8.00.

Regarding `CN1CCN2c3ccc(-c4cnc5[nH]cc(-c6ccc(C(=O)N7CC(N(C)C)C7)cc6)c5c4)cc3OCC2C1` (centres unmarked) [Compound 103], the pIC50 is at least 8.00.

On to `CN1CCN2c3ccc(-c4cnc5[nH]cc(-c6ccc(C(=O)N7CC(O)C7)cc6)c5c4)cc3OCC2C1` (centres unmarked) [Compound 104], for which the pIC50 was 7.00 to 8.00.

As to `CN(C)CCN(C)C(=O)c1ccc(-c2c[nH]c3ncc(-c4ccc5c(c4)OCC4CN(C)CCN54)cc23)cc1` (centres unmarked) [Compound 105], the pIC50 was at least 8.00.

With `CN1CCN2c3ccc(-c4cnc5[nH]cc(-c6ccc(C(=O)N7CC8(COC8)C7)cc6)c5c4)cc3OCC2C1` (centres unmarked) [Compound 106], the pIC50 is at least 8.00.

For `CN1CC(CN(C)C(=O)c2ccc(-c3c[nH]c4ncc(-c5ccc6c(c5)OCC5CN(C)CCN65)cc34)cc2)C1` (centres unmarked) [Compound 107], the pIC50 is at least 8.00.

Regarding `CN1CCN2c3ccc(-c4cnc5[nH]cc(-c6ccc(C(=O)C7CNC7)cc6)c5c4)cc3OCC2C1` (centres unmarked) [Compound 108], the pIC50 is 7.00 to 8.00.

Take `CN1CCN2c3ccc(-c4cnc5[nH]cc(-c6ccc(OC7CCNCC7)cc6)c5c4)cc3OCC2C1` (centres unmarked) [Compound 109]: the pIC50 is at least 8.00.

As for `CN(C)CCCOc1ccc(-c2c[nH]c3ncc(-c4ccc5c(c4)OCC4CN(C)CCN54)cc23)cc1` (centres unmarked) [Compound 110], the pIC50 was at least 8.00.

Take `CN1CC(C(O)c2ccc(-c3c[nH]c4ncc(-c5ccc6c(c5)OCC5CN(C)CCN65)cc34)cc2)C1` (centres unmarked) [Compound 111]: the pIC50 was at least 8.00.

For `CN1CCN2c3ccc(-c4cnc5[nH]cc(-c6ccc(C(=O)N7CC(O)C7)cc6)c5n4)cc3OCC2C1` (centres unmarked) [Compound 113], the pIC50 was at least 8.00.

Regarding `CN(C)CCN(C)C(=O)c1ccc(-c2c[nH]c3ncc(-c4ccc5c(c4)OCC4CN(C)CCN54)nc23)cc1` (centres unmarked) [Compound 114], the pIC50 is at least 8.00.

Consider `CN1CCN2c3ccc(-c4cnc5[nH]nc(-c6ccc(C(=O)N7CC(N(C)C)C7)cc6)c5c4)cc3OCC2C1` (centres unmarked) [Compound 115], for which the pIC50 was at least 8.00.

As to `CN1CCN2c3ccc(-c4cnc5[nH]nc(-c6ccc(C(=O)N7CC(O)C7)cc6)c5c4)cc3OCC2C1` (centres unmarked) [Compound 116], the pIC50 is 7.00 to 8.00.

As for `CN(C)CCN(C)C(=O)c1ccc(-c2n[nH]c3ncc(-c4ccc5c(c4)OCC4CN(C)CCN54)cc23)cc1` (centres unmarked) [Compound 117], the pIC50 is at least 8.00.

Consider `CN1CCN2c3ccc(-c4cnc5[nH]nc(-c6ccc(C(=O)N7CC(N(C)C)C7)cc6)c5n4)cc3OCC2C1` (centres unmarked) [Compound 118], for which the pIC50 was at least 8.00.

For the molecule `CN1CCN2c3ccc(-c4cnc5[nH]nc(-c6ccc(C(=O)N7CC(O)C7)cc6)c5n4)cc3OCC2C1` (centres unmarked) [Compound 119], the pIC50 is 7.00 to 8.00.

Regarding `CN(C)CCN(C)C(=O)c1ccc(-c2n[nH]c3ncc(-c4ccc5c(c4)OCC4CN(C)CCN54)nc23)cc1` (centres unmarked) [Compound 120], the pIC50 was at least 8.00.

`CNCc1cc(C)c(-c2cc3c(-c4ccc5c(c4)NCC4CN(C)CCN54)n[nH]c3cc2C#N)c(F)c1` (centres unmarked) [Compound 121]: the pIC50 was at least 8.00.

Take `CNCc1cc(C)c(-c2cc3c(-c4ccc5c(c4)N(C)CC4CN(C)CCN54)n[nH]c3cc2C#N)c(F)c1` (centres unmarked) [Compound 122]: the pIC50 was at least 8.00.

On to `CNCc1cc(C)c(-c2cc3c(-c4ccc5c(c4)OCC4CNCCN54)n[nH]c3cc2C#N)c(F)c1` (centres unmarked) [Compound 123], for which the pIC50 is at least 8.00.

On to `CCN1CCN2c3ccc(-c4n[nH]c5cc(C#N)c(-c6c(C)cc(CNC)cc6F)cc45)cc3OCC2C1` (centres unmarked) [Compound 124], for which the pIC50 was at least 8.00.

For `CNCc1cc(C)c(-c2cc3c(-c4ccc5c(c4)OCC4CN(C6CC6)CCN54)n[nH]c3cc2C#N)c(F)c1` (centres unmarked) [Compound 125], the pIC50 was at least 8.00.

As for `CNCc1cc(C)c(-c2cc3c(-c4ccc5c(c4)OCC4CN(C6COC6)CCN54)n[nH]c3cc2C#N)c(F)c1` (centres unmarked) [Compound 126], the pIC50 was at least 8.00.

In the case of `CNCc1cc(C)c(-c2cc3c(-c4ccc5c(c4)OCC4CN(C6CCN(C)CC6)CCN54)n[nH]c3cc2C#N)c(F)c1` (centres unmarked) [Compound 127], the pIC50 was at least 8.00.

Consider `CNCc1cc(C)c(-c2cc3c(-c4ccc5c(c4)OCC4CN(CC(F)(F)F)CCN54)n[nH]c3cc2C#N)c(F)c1` (centres unmarked) [Compound 128], for which the pIC50 was at least 8.00.

For `CNCc1cc(C)c(-c2cc3c(-c4ccc5c(c4)OCC4CN(CCC#N)CCN54)n[nH]c3cc2C#N)c(F)c1` (centres unmarked) [Compound 129], the pIC50 was at least 8.00.

The values are drawn from patent publication US12686689B2, “HPK1 inhibitor, preparation method therefor and use thereof” (WIGEN BIOMEDICINE TECHNOLOGY (SHANGHAI) CO., LTD., priority 2020, dated 2026).
